Patent US20120046253A1, “STABLE PHARMACOLOGICALLY ACTIVE COMPOSITIONS INCLUDING VITAMIN D CONTAINING AND CORTICOSTEROID COMPOUNDS WITH LOW pH COMPATIBILITY” (priority 2006, published 2012)

Assays:
[1] = asserted in U.S. Pat. No. 5,763,426; cited from earlier work
[2] = Stability of the calcipotriene and betamethasone dipropionate composition at 55° C. (quantitative HPLC); type: physicochemical; details: Example 1 ointment
Method: (§1) In both of the above cases, stability is measured after incubation in a closed container at the recited temperature for the recited amount of time; stability is determined by any quantitative assay for the recited component, and is preferably determined by HPLC methodologies known in the art.

[3] = Stability of the calcipotriene and betamethasone dipropionate composition at 40° C. (quantitative HPLC); type: physicochemical
Method: as §1
The amount of the recited components in Table 1 were measured by quantitiative HPLC 1-2 days after the cooling (Time zero) and at the recited times after storage at the recited temperatures.
The amount of the recited components in Table 1 were measured by quantitiative HPLC 1-2 days after the cooling (Time zero) and at the recited times after storage at the recited temperatures).

[4] = reportedly; cited from earlier work

| Assay (%) 3 days ([2]; stored at 55° C. 3 days) | Assay (%) Time zero ([2]; time zero (Table 2)) | Assay (%) Time zero ([3]; Example 1 ointment (medium chain triglyceride), 1-2 days after cooling, HPLC) | Assay (%) 1 months ([3]; Example 1 ointment, stored at 40° C. 1 month) | Assay (%) 2 months ([3]; Example 1 ointment, stored at 40° C. 2 months) | Assay (%) 3 months ([3]; Example 1 ointment, stored at 40° C. 3 months) | Assay Time zero ([3]; Example 2 ointment (polysorbate 80), time zero) | Assay 1 months ([3]; Example 2 ointment, stored at 40° C. 1 month) | Assay 2 months ([3]; Example 2 ointment, stored at 40° C. 2 months) | SMILES | stability of crystal form [1] | pH at which most stable [4] |
| --- | --- | --- | --- | --- | --- | --- | --- | --- | --- | --- | --- |
|  |  |  |  |  |  |  |  |  | C=C1/C(=C\C=C2/CCC[C@]3(C)[C@@H]([C@H](C)/C=C/[C@@H](O)C4CC4)CC[C@@H]23)C[C@@H](O)C[C@@H]1O [calcipotriol hydrate] | surprisingly stable |  |
| 96.4% | 95.8% | 95.8% | 98.0% | 97.1% | 100.5% | 99.1% | 97.9% | 97.4% | C=C1/C(=C\C=C2/CCC[C@]3(C)[C@@H]([C@H](C)/C=C/[C@@H](O)C4CC4)CC[C@@H]23)C[C@@H](O)C[C@@H]1O [Calcipotriene, calcipotriene] |  | greater than 8 |
